From US7935726B1, “Tricyclic pyrones” (Kansas State University Research Foundation, priority 1999, dated 2011) come the findings set out here.

The test system of one data set is L1210 tumor cells. In words: cytotoxicity to L1210 tumor cells. Format: cell-based. From the text:
(§1) The reported procedures for the inhibitory activities of ACAT (Tomoda, H.; Nishida, H.; Masuma, R.; Cao, J.; Okuda, S.; Omura, S. J. Antibiot. 1991, 44, 136-143), CETP (Tomoda, H.; Tabata, N.; Masuma, R.; Si, S.-Y.; Omura, S. J. Antibiot. 1998, 51, 618-623; D. H. Hua et al. Tetrahedron 2003, 59, 4795-4803), L1210 tumor cells (Perchellet, E. M.; Ladesich, J. B.; Magill, M. J.; Chen, Y.; Hua, D. H.; Perchellet, J. P. Anti-Cancer Drugs 1999, 10, 489-504), and APP C99-induced cell death (Jin, L.-W.; Hua, D. H.; Shie, F.-S.; Maezawa, I.; Sopher, B.; Martin, G. M. J. Mol. Neurosci. 2002, 19, 57-61) were followed.

The next data set concerns MC65 cells. Nature of the data set: protection from APP C99-induced cell death in MC65 cells. Format: cell-based.
Source text: as §1, with “followed. […]” for “followed.”

Data set [1] concerns N/N 1003 lens epithelial cells. In words: tissue culture assay: galactitol formation from galactose in lens epithelial cells (GC/MS). The following applies: for IC50 / inhibition at 10 µM: Epithelial cell; for inhibition at 10 µM: 10 uM inhibitor, 40 mM galactose media, lens epithelial cells, number of trials in parenthesis. Format: cell-based. The protocol: The activity of the drugs is tested in various ways, including tissue culture assays and assays testing aldose reductase inhibition. For the tissue culture assay, a lens epithelial cell line is grown in galactose with or without the drug. Cells are tested for polyol accumulation by GC/mass spectrometry. Levels of PKC are tested in homogenized cell pellets or in samples of lens, retina or sciatic nerves from treated patients. Tissue is homogenized and tested for PKCγ levels using Western blots. These procedures are described in more detail below.
The ability of the drugs to inhibit galactitol formation from galactose was also studied in N/N 1003 lens epithelial cells. Two sets of lens cells were grown in media with […] 40 mM galactose. Various concentrations of inhibitors were added initially and the cells were grown for 48 hours. The cells were lysed and galactose and galactitol were extracted out and the concentrations were determined using gas chromatography and mass spectrometry by silylating the crude extract with excess of trimethylsilyl chloride, trimethylsilyl imidazole and pyridine at 70° C. for 1 h.
40 mM galactose media was supplemented with 10 uM inhibitor and fed to lens epithelial cells for 48 hours.

The test system of data set [2] is PKC-γ. Nature of the data set: galactose-fed rats: PKC-γ levels in lens and sciatic nerve (Western blot). The data set is classed as in vivo, Sprague Dawley Rats. The following applies: 100 mg/Kg body weight per day; for PKC-γ levels in sciatic nerve cells: high galactose feed, FIG. 3B. As to the method: In order to test for in vivo effects of ARI's, rats were fed a 40% galactose diet for 9 days and the accumulation of galactitol was measured in lens tissue. This tissue has high aldose reductase activity and the eye has a separate vasculature. Thus, if the ARI works in the lens this is a good indication that the drug works and can penetrate to most tissues.
The specific experimental details follow. […] The rats were given food supplemented with inhibitor in the morning and then given food and water ad libitum the rest of the day. They were kept on a 12-hour on and 12-hour off light cycle. After 9 days, the rats were sacrificed with an overdose of CO2 and then eyes were taken and immediately frozen on dry ice for later polyol and PKC analyses. Experiments on all rats conformed to the ARVO resolution on the Use of Animals in Research.
The lenses were removed from the enucleated eyes and weighed. They were put in 200 μL lysis buffer (50 mM Tris, 100 mM NaCl, M-Per Pierre Zwitterionic detergent, 5 mM NaF, 1 mM Na3VO4, 40 mM β-glycerophosphate, 6 μg/mL chymotrypsin, 10 μM3,4-dichlorocoumarin, 10 μM E-64, 1 μg/mL leupeptin, 1 μg/mL pepstatin A, 1 μg/mL aprotinin, 1 mM PMSF, and 5 mM EDTA (Sigma). The lenses were then ground using a tissue grinder until they were a uniformly white solution. They were then sonicated to make certain all the cells were disrupted. The mixture was then centrifuged for 20 minutes at 0° C. at […]. The supernatant was then analyzed for protein content using […] (Pierce). Equal amounts of protein were loaded and separated on a 10% SDS polyacrylamide gel. The proteins were transferred to nitrocellulose (Midwest Scientific; pore size 0.45 μm). The western was blocked with a 3% milk solution, and then mouse anti-PKC γ (1:5000) or PKC α (1:1000) antisera (Transgenic Laboratories) were applied in a 3% milk solution overnight. […]
The effects of streptozotocin induced diabetes on PKC-γ levels in rat lens have been measured. […]
A general note: Immunoblotting shows a protein as a band on a membrane.

Data set [3] deals with PKC-γ. Nature of the data set: canine study: PKC-γ level of dog lens (Western blot). Format: in vivo, Beagle dogs. As to the method: (§2) A pilot study was conducted to determine initial toxicity and efficacy in a Beagle model. The study was conducted at the fully accredited facility at the Kansas State University Veterinary Clinic. The dogs were fed a 40% galactose diet for 6 weeks. These dogs developed cataracts. Compound 1 was administered orally at 100 mg/kg body weight/day for 6 weeks. At this dose, the polyol levels were 50% normalized (FIG. 4) and PKCγ levels were 80% normalized (FIG. 5). […] The PkC-γ levels of dogs treated with galactose is 30.8%, G+I is 84.1% and C+I is 79.7%. Additional testing at higher doses is planned to determine optimal dose for efficacy with no or low toxicity. These experiments are well within the skill and experience of one of ordinary skill in the art and can be performed without undue experimentation.

Data set [4] concerns the target T1, Human aldose reductase (AR) (Homo sapiens, UniProt P15121).
T1 construct: made in house; host or cells: E. coli
In words: human AR inhibition assay (enzyme assay, NADPH absorption at 340 nm). The data set is classed as biochemical. The following applies: Table 3; average of three assays; read-out: IC50, Inhibition of Human Retina Aldose Reductase. As to the method:
Human aldose reductase (AR) was obtained from overexpression of the human AR gene in an E coli system and was purified by column chromatography using a talon metal affinity column and eluted with a gradient mixture of Tris, NaCl buffer and imidazole solution. The human AR inhibition assay was conducted as follows. In a sample cuvette, 25 mM of D-xylose (75 mg/mL) and 0.15 mM of reduced nicotinamide adenine dinucleotide phosphate (NADPH) (4 mg/mL), and various amount of the inhibitor [in PBS (phosphate buffer saline) solution; the concentration of the inhibitor was determined using UV spectroscopy based on εmax at λmax of the drug] in 700 uL of PBS (a solution made of 1.44 g of Na2HPO4, 0.24 g KH2PO4, 0.2 g KCl, and 8 g NaCl in 1 L of distilled water) buffer (pH=6.1) solution and 200 uL of the AR enzyme (a final volume of 1 mL was obtained). The intensity of absorption of NADPH (λmax=340 nm) was measured. When xylose is reduced to xylitol, NADPH is converted into NADP and the absorption at 340 nm decreases. When AR is inhibited by the drug, the absorption at 340 nm of NADPH remains unchanged. Each assay was repeated three times and an average IC50 value was obtained.

Data set [5] in a line: pathology studies in treated rats. The data set is classed as in vivo. The following applies: 100 mg/Kg body weight per day, 9 days.
A short description of data set [6]: canine study: polyol level in dog lens (GC/MS). Format: in vivo, Beagle dogs. The protocol:
as §2

Data set [7] has as its system bovine lens epithelial cells. Nature of the data set: toxicity in bovine lens epithelial cells. The data set is classed as cell-based. The following applies: up to 100 uM added to bovine lens epithelial cells.
Setting [8] is: dogs, 40% galactose diet 6 weeks, orally 100 mg/kg body weight/day for 6 weeks.
Setting [9] is: Galactosemic dogs, with inhibitor.

Like-named read-outs stand apart in the source and are kept apart here. Bounds are passed on as bounds.

As usually defined, the EC50 is the midpoint of the concentration-response curve. The low end stands for greater potency, the high end for weaker potency. As to `Cc1cc2c(c(=O)o1)C=C1CC[C@@H](CC(C)n3cnc4c(N)ncnc43)C[C@@H]1O2` (mixture of isomers) [Compound 105, (5aS,7S)-7-[(1R) and (1S)-2-(N-9-Adenyl)-1-methylethyl]-3-methyl-1H,7H-5a,6,8,9-tetrahydro-1-oxopyrano[4,3-b][1]benzopyran], the IC50 in the data set with L1210 tumor cells (read-out: IC50, cytotoxic to L1210 tumor cells) worked out at 30 µM. Moreover, the “fold less active than 106 (EC50)” value in the data set with MC65 cells (MC65 cells) is listed as 20 fold. For the same compound, the EC50 with MC65 cells (MC65 cells in the absence of tetracycline) turned out to be 3 µM.
The term inhibition denotes the share of the control response that was lost under treatment. For the compound `O=C(O)Cc1cc2c(c(=O)o1)C=C1CCCCC1O2` (centres unmarked) [Compound 1, {1H,7H-5a,6,8,9-Tetrahydro-1-oxopyrano[4,3-b][1]benzopyran-3-yl}acetic acid], the “% galactitol” value is listed as 80% in [1] (1 uM compound 1, 40 mM galactose, 48 hours) and 30% in data set [1] (10 uM compound 1, 40 mM galactose, 48 hours). For the same compound, the “concentration of galactitol relative to galactose (GC/MS, FIG. 1B)” value in data set [1] (10 uM, 40 mM galactose, 48 hours) is recorded as “decreases the concentration of galactitol relative to galactose”. For the same compound, the IC50 in [1] worked out at 6 µM; in [4], 0.002 µM. In data set [1] (48 hours), the inhibition at 10 µM was determined as 80 ± 10%. Moreover, the “PKC-γ levels in sciatic nerve cells” value in the data set on PKC-γ [2] is on record as “normalized”. For the same compound, the “PKC-γ level of dog lens (read-out of intensities, FIG. 5)” value in the data set on PKC-γ [3] (control with inhibitor 1 (C+I)) worked out at 79.7%; in the data set with PKC-γ [3] (galactose and inhibitor 1 (G+I)) it was 84.1%. Besides, in the data set on PKC-γ [3] (setting [8]), the PKCγ levels normalized is 80%. The “toxicity to the rats (pathology studies)” value in data set [5] is listed as “not toxic to the rats”. For the same compound, the “Galactitol (polyol) (GC/MS, dog lens)” value in [6] (setting [9]) was 27.3%. Further, the “Galactose (GC/MS, dog lens)” value in [6] (setting [9]) is reported as 72.7%. The polyol levels normalized in data set [6] (setting [8]) is listed as 50%. Moreover, the water solubility result in the data set “water solubility” is reported as “water soluble”. Besides, the toxicity entry in [7] is given as “no toxicity was found”.
Turning to `O=C(O)C(O)Cc1cc2c(c(=O)o1)C(O)C1CCCCC1O2` (centres unmarked) [Compound 2, 2-Hydroxy-3-{1H,7H-5a,6,8,9,10,11-hexahydro-10-hydroxy-1-oxopyrano[4,3-b][1]benzopyran-3-yl}-propanoic acid], the inhibition at 10 µM in data set [1] (48 hours) is under 10%. Besides, in [4], the IC50 was 0.02 µM. Further, in “water solubility”, the water solubility result was “water soluble”. For the same compound, the toxicity result in data set [7] is “no toxicity was found”.
With `CC(=O)OCC1(C)C(OC(C)=O)CCC2(C)C1CC(OC(C)=O)C1(C)Oc3cc(-c4cccnc4)oc(=O)c3C(O)C21` (centres unmarked) [Pyripyropene A, reference compound], the IC50 in the data set with L1210 tumor cells (Mus musculus, L1210, Table 9, read-out: C50, L1210 Leukemic Cells) was over 100 µM.
On to `COc1ccc2c(C(=S)N(C)CC(=O)O)cccc2c1C(F)(F)F` [Tolrestat, reference compound], for which the “% galactitol” value in data set [1] (0.5 uM Tolrestat, 40 mM galactose, 48 hours) came out at 100%; in data set [1] (1 uM Tolrestat, 40 mM galactose, 48 hours), 90%; in data set [1] (7 uM Tolrestat, 40 mM galactose, 48 hours), 53%. The compound further came in with an IC50 in [1] of 8 µM. Besides, the inhibition at 10 µM in data set [1] (48 hours) came out at 95 ± 4%. In the data set with PKC-γ [2] (40% galactose feed 9 days, FIG. 2, FIG. 3A), the “PKC-γ levels in lens epithelial cells” value is “remained near normal”. Besides, the “PKC-γ levels in sciatic nerve cells” value in the data set on PKC-γ [2] is on record as “normalized”. In addition, the water solubility result in “water solubility” is recorded as “insoluble in water”.
